Test results taken from article PMC3976565 (Science (New York, N.Y.), 2013).

Target: SelA-ΔN (Aquifex aeolicus, UniProt O67140)
Assay: X-ray crystallography
Assay type: binding
Settings: 3.25 A; covalent, Lys285; thiosulfate co-bound

Sequence of SelA-ΔN (O67140 62-452, stated change not applied): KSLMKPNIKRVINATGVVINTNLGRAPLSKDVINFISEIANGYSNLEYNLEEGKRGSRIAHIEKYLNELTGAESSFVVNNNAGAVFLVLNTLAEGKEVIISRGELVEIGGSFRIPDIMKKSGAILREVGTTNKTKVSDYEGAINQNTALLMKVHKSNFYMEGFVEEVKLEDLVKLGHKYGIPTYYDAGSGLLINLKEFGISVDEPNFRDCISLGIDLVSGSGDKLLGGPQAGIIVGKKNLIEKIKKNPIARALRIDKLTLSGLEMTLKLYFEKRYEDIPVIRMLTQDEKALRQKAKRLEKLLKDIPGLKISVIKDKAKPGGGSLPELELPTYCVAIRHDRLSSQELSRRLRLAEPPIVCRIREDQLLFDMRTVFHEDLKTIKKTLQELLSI

**Q.** For `Cc1ncc(COP(=O)(O)O)c(C=O)c1O` [PLP], which X-ray crystallography is on record?
**A.** Its X-ray crystallography is “SelA-ΔN in complex with thiosulfate. PLP and thiosulfate ions (TS1 to TS3) are shown”.
